Several values for one entry are separate records, joined by “and”; a condition that tells them apart may be missing. Identical values can stand only once.
What follows are molecules tested against human GPR40 (Homo sapiens (Human), UniProt O14842) (assay: GPR40 Calcium Flux Assay). Settings: transfected HEK293 cells stably expressing human GPR40; Ca2+ mobilization; mean data; read-out: hGPR40 Ca^2+ Assay EC50.
human GPR40, sequence (O14842 whole entry): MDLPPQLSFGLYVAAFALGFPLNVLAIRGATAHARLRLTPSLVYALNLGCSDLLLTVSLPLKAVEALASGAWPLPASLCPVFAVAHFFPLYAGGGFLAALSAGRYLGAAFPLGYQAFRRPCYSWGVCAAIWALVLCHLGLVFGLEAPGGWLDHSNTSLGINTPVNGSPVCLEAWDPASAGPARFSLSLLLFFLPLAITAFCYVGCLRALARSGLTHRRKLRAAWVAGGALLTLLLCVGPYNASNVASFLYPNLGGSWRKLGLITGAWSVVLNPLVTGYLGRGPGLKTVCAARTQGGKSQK
Assay type: cell-based
Protocol: Compounds were tested in a calcium flux assay using transfected HEK293 cells stably expressing either human GPR40 or rat GPR40. Human GPR40 expressing cells were cultured in DMEM-High Glucose media supplemented with 10% fetal bovine serum, 1×L-Glutamine, 1×Penicillin/Streptomycin and 500 μg/mL G418. Rat GPR40 expressing cells were cultured in DMEM-High Glucose media supplemented with 10% fetal bovine serum and 1 μg/mL puromycin. Cells were plated into poly-D-lysine coated 384-well plates and cultured overnight in a 37° C. humidified tissue culture incubator under 5% CO2/[…] atmosphere. On the day of the experiment, the culture media was replaced with assay buffer (HBSS, 20 mM HEPES, 0.1% BSA) and the cells incubated at 37° C. for 1 h. Calcium-sensitive fluorescent dye (Fluo 8 No-Wash Calcium Dye, ABD Bioquest) was then added and the cells incubated for another 30 min at 37° C. followed by 15 min at room temperature while protected from the light. The cell plate and a plate of diluted compounds of Formula (I) were loaded into a fluorescent plate reader that added compounds onto the cells while measuring the fluorescence intensity of each well. The plate reader recorded fluorescence intensity at 1 second intervals for 8 min and provided the data for analysis in an Excel format. EC50 values were calculated using Prism (GraphPad) software.
`CC#CC(CC(=O)O)c1ccc(OCc2ccc3scc(-c4ccc(OC5CCOCC5)cc4C)c3c2)nc1` (stereo not shown) [Cpd 46, 3-(6-((3-(2-Methyl-4-((tetrahydro-2H-pyran-4-yl)oxy)phenyl)benzo[b]thiophen-5-yl)methoxy)pyridin-3-yl)hex-4-ynoic acid] showed an EC50 of 18 nM.
In the case of `Cc1cc(OC2CCOCC2)ccc1-c1csc2ccc(COc3ccc(C4(CC(=O)O)CC(=O)C4)cc3)cc12` [Cpd 34, 2-(1-(4-((3-(2-Methyl-4-((tetrahydro-2H-pyran-4-yl)oxy)phenyl)benzo[b]thiophen-5-yl)methoxy)phenyl)-3-oxocyclobutyl)acetic acid], the EC50 is reported as 25 nM.
`CC#C[C@@H](CC(=O)O)c1ccc(OCc2ccc3scc(-c4cc(Cl)ncc4C)c3c2)nc1` [Cpd 90, (3R)-3-(6-((3-(2-Chloro-5-methylpyridin-4-yl)benzo[b]thiophen-5-yl)methoxy)pyridin-3-yl)hex-4-ynoic acid] was tested, and the EC50 was 15 nM.
For `CC#C[C@@H](CC(=O)O)c1ccc(OCc2ccc3scc(-c4ccccc4Cl)c3c2)cc1` [Cpd 19, (3S)-3-(4-((3-(2-Chlorophenyl)benzo[b]thiophen-5-yl)methoxy)phenyl)hex-4-ynoic acid], the EC50 was 8 nM.
Work on `CC#C[C@@H](CC(=O)O)c1ccc(OCc2ccc3scc(-c4c(C)cccc4NS(C)(=O)=O)c3c2)cc1` [Cpd 44, (3S)-3-(4-((3-(2-Methyl-6-(methylsulfonamido)phenyl)benzo[b]thiophen-5-yl)methoxy)phenyl)hex-4-ynoic acid] yielded an EC50 of 22 nM.
`CC#C[C@@H](CC(=O)O)c1ccc(OCc2ccc3scc(-c4ccc(OCC(O)CO)cc4C)c3c2)cc1` (stereo partly drawn) [Cpd 13, (3S)-3-(4-((3-(4-(2,3-Dihydroxypropoxy)-2-methylphenyl)benzo[b]thiophen-5-yl)methoxy)phenyl)hex-4-ynoic acid] showed an EC50 of 7 nM.
In the case of `CCOCCOc1ccc(-c2csc3ccc(COc4ccc([C@]5(CC(=O)O)C[C@@H](O)C5)cc4)cc23)c(C)c1` [Cpd 35], the EC50 is reported as 26 nM.
`CC#C[C@@H](CC(=O)O)c1ccc(COc2ccc3scc(-c4ccc(OCC5(C)COC5)cc4C)c3c2)cc1` [Cpd 56, (3S)-3-(4-[[(3-[2-Methyl-4-[(3-methyloxetan-3-yl)methoxy]phenyl]-1-benzothiophen-5-yl)oxy]methyl]phenyl)hex-4-ynoic acid] gave an EC50 of 34 nM.
For `Cc1cc(C2=CCS(=O)(=O)CC2)ccc1-c1csc2ccc(COc3ccc(C4(CC(=O)O)CC(=O)C4)cc3)cc12` [Cpd 28, 2-(1-(4-((3-(4-(1,1-Dioxido-3,6-dihydro-2H-thiopyran-4-yl)-2-methylphenyl)benzo[b]thiophen-5-yl)methoxy)phenyl)-3-oxocyclobutyl)acetic acid], the EC50 was 12 nM.
Work on `CC#C[C@@H](CC(=O)O)c1ccc(OCc2ccc3scc(-c4ccc(OCCC(C)(C)O)cc4C)c3c2)cc1` [Cpd 12, (3S)-3-(4-((3-(4-(3-Hydroxy-3-methylbutoxy)-2-methylphenyl)benzo[b]thiophen-5-yl)methoxy)phenyl)hex-4-ynoic acid] yielded an EC50 of 9 nM.
For `CC#C[C@@H](CC(=O)O)c1ccc(OCc2ccc3scc(-c4ccc(OCCOC)cc4C)c3c2)nc1` [Cpd 77, (3R)-3-(6-((3-(4-(2-Methoxyethoxy)-2-methylphenyl)benzo[b]thiophen-5-yl)methoxy)pyridin-3-yl)hex-4-ynoic acid], the EC50 was 16 nM and 6 nM and 5 nM.
`CC#C[C@@H](CC(=O)O)c1ccc(COc2ccc3scc(-c4ccc(OCC(O)CO)cc4C)c3c2)cc1` (stereo partly drawn) [Cpd 55, (3S)-3-[4-[([3-[4-(2,3-Dihydroxypropoxy)-2-methylphenyl]-1-benzothiophen-5-yl]oxy)methyl]phenyl]hex-4-ynoic acid] was tested, and the EC50 was 33 nM.
For `CC#C[C@@H](CC(=O)O)c1ccc(OCc2ccc3scc(-c4cnccc4OC)c3c2)cc1` [Cpd 81, (3S)-3-(4-((3-(4-Methoxypyridin-3-yl)benzo[b]thiophen-5-yl)methoxy)phenyl)hex-4-ynoic acid], the EC50 was 11 nM.
`CC#C[C@@H](CC(=O)O)c1ccc(OCc2ccc3scc(-c4cc(OCCOC)ccc4C)c3c2)nc1` [Cpd 87, (3R)-3-(6-((3-(5-(2-Methoxyethoxy)-2-methylphenyl)benzo[b]thiophen-5-yl)methoxy)pyridin-3-yl)hex-4-ynoic acid] gave an EC50 of 11 nM.
Work on `CC#C[C@H](CC(=O)O)c1ccc(OCc2ccc3scc(-c4ccccc4C)c3c2)cc1` [Cpd 98, (3R)-3-[4-[[3-(2-Methylphenyl)benzo[b]thiophen-5-yl]methoxy]phenyl]hex-4-ynoic acid] yielded an EC50 of 160 nM.
With `CC#CC(CC(=O)O)c1ccc(OCc2ccc3scc(-c4ccc(OCC5(C)CS(=O)(=O)C5)cc4C)c3c2)nc1` (stereo not shown) [Cpd 64, 3-(6-((3-(2-Methyl-4-((3-methyl-1,1-dioxidothietan-3-yl)methoxy)phenyl)benzo[b]thiophen-5-yl)methoxy)pyridin-3-yl)hex-4-ynoic acid] the EC50 was 21 nM.
For `CC#CC(CC(=O)O)c1ccc(OCc2ccc3scc(-c4ccccc4C)c3c2)nc1` (stereo not shown) [Cpd 45, 3-(6-((3-(2-Methylphenyl)benzo[b]thiophen-5-yl)methoxy)pyridin-3-yl)hex-4-ynoic acid], the EC50 was 13 nM.
Work on `CC#C[C@@H](CC(=O)O)c1ccc(OCc2ccc3scc(-c4cc(S(C)(=O)=O)ccc4C)c3c2)cc1` [Cpd 41, (3S)-3-(4-((3-(2-Methyl-5-(methylsulfonyl)phenyl)benzo[b]thiophen-5-yl)methoxy)phenyl)hex-4-ynoic acid] yielded an EC50 of 21 nM.
With `CC#C[C@@H](CC(=O)O)c1ccc(OCc2ccc3scc(-c4ccc(OC)nc4C)c3c2)cc1` [Cpd 80, (3S)-3-(4-((3-(6-Methoxy-2-methylpyridin-3-yl)benzo[b]thiophen-5-yl)methoxy)phenyl)hex-4-ynoic acid] the EC50 was 20 nM.
With `CC#C[C@@H](CC(=O)O)c1ccc(OCc2ccc3scc(-c4ccc(OCC5CCS(=O)(=O)CC5)cc4C)c3c2)nc1` [Cpd 75, (3R)-3-(6-((3-(4-((1,1-Dioxidotetrahydro-2H-thiopyran-4-yl)methoxy)-2-methylphenyl)benzo[b]thiophen-5-yl)methoxy)pyridin-3-yl)hex-4-ynoic acid] the EC50 was 7 nM.
Molecule `CC#C[C@@H](CC(=O)O)c1ccc(OCc2ccc3scc(-c4cc(OCCOC)cnc4C)c3c2)cc1` [Cpd 49, (3S)-3-(4-((3-(5-(2-Methoxyethoxy)-2-methylpyridin-3-yl)benzo[b]thiophen-5-yl)methoxy)phenyl)hex-4-ynoic acid] has an EC50 of 9 nM.
`CC#C[C@@H](CC(=O)O)c1ccc(OCc2ccc3scc(-c4cc(Cl)ncc4C)c3c2)cc1` [Cpd 52, (3S)-3-(4-((3-(2-Chloro-5-methylpyridin-4-yl)benzo[b]thiophen-5-yl)methoxy)phenyl)hex-4-ynoic acid] gave an EC50 of 19 nM.
`CC#C[C@@H](CC(=O)O)c1ccc(OCc2ccc3sc(C)c(-c4ccc(OC5CCS(=O)(=O)CC5)cc4C)c3c2)cc1` [Cpd 9, (3S)-3-[4-[[3-[4-(1,1-Dioxothian-4-yl)oxy-2-methyl-phenyl]-2-methyl-benzo[b]thiophen-5-yl]methoxy]phenyl]hex-4-ynoic acid] was tested, and the EC50 was 17 nM.
With `CC#C[C@@H](CC(=O)O)c1ccc(COc2ccc3scc(-c4ccc(C5=CCS(=O)(=O)CC5)cc4C)c3c2)cc1` [Cpd 25, (3S)-3-(4-(((3-(4-(1,1-Dioxido-3,6-dihydro-2H-thiopyran-4-yl)-2-methylphenyl)benzo[b]thiophen-5-yl)oxy)methyl)phenyl)hex-4-ynoic acid] the EC50 was 24 nM.
With `CC#C[C@@H](CC(=O)O)c1ccc(OCc2ccc3scc(-c4cccc(OCCOC)c4C)c3c2)cc1` [Cpd 67, (3S)-3-[4-([3-[3-(2-Methoxyethoxy)-2-methylphenyl]-1-benzothiophen-5-yl]methoxy)phenyl]hex-4-ynoic acid] the EC50 was 9 nM.
Molecule `CC#C[C@@H](CC(=O)O)c1ccc(OCc2ccc3scc(-c4nc(OC)ccc4C)c3c2)cc1` [Cpd 94, (3S)-3-(4-((3-(6-Methoxy-3-methylpyridin-2-yl)benzo[b]thiophen-5-yl)methoxy)phenyl)hex-4-ynoic acid] has an EC50 of 15 nM.
Molecule `CC#C[C@@H](CC(=O)O)c1ccc(COc2ccc3scc(-c4ccc(OCCOC)cc4C)c3c2)cc1` [Cpd 58, (3S)-3-[4-[([3-[4-(2-Methoxyethoxy)-2-methylphenyl]-1-benzothiophen-5-yl]oxy)methyl]phenyl]hex-4-ynoic acid] has an EC50 of 14 nM.
With `CC#C[C@@H](CC(=O)O)c1ccc(COc2ccc3scc(-c4ccc(OC5CCOC5)cc4C)c3c2)cc1` (stereo partly drawn) [Cpd 86, (3S)-3-[4-[([3-[2-Methyl-4-(tetrahydrofuran-3-yloxy)phenyl]-1-benzothiophen-5-yl]oxy)methyl]phenyl]hex-4-ynoic acid] the EC50 was 8 nM.
`CC#C[C@@H](CC(=O)O)c1ccc(OCc2ccc3scc(-c4ccc(S(C)(=O)=O)cc4C)c3c2)cc1` [Cpd 42, (3S)-3-(4-((3-(2-Methyl-4-(methylsulfonyl)phenyl)benzo[b]thiophen-5-yl)methoxy)phenyl)hex-4-ynoic acid] was tested, and the EC50 was 12 nM.
Work on `CC#C[C@@H](CC(=O)O)c1ccc(OCc2ccc3scc(-c4ccc(OC5CCOCC5)cc4C)c3c2)cc1` [Cpd 15, (3S)-3-(4-((3-(2-Methyl-4-((tetrahydro-2H-pyran-4-yl)oxy)phenyl)benzo[b]thiophen-5-yl)methoxy)phenyl)hex-4-ynoic acid] yielded an EC50 of 2 nM.
Molecule `CC#C[C@@H](CC(=O)O)c1ccc(OCc2ccc3scc(-c4ccccc4OCCOC)c3c2)cc1` [Cpd 68, (3S)-3-[4-([3-[2-(2-Methoxyethoxy)phenyl]-1-benzothiophen-5-yl]methoxy)phenyl]hex-4-ynoic acid] has an EC50 of 19 nM.
